Converted amounts (≈) assume the structure as drawn. Like-named read-outs stand apart in the source and are kept apart here.
Tested on: S. aureus
Assay: Minimum inhibitory concentrations (MICs) for S. aureus of exemplary compounds (Table 2)
Type: cell-based
Details: Staphylococcus aureus, read-out: MICs
Excerpt: Exemplary compounds in accordance with the invention are listed in Table 2 with their minimum inhibitory concentrations (MICs) (μg/mL) for S. aureus:
Furthermore, the antibiotic compounds can be assayed for anti-proliferative or anti-infective properties on a cellular level. For example, where the target organism is a microorganism, the activity of compounds of interest can be assayed by growing the microorganisms of interest in media either containing or lacking the compound. Growth inhibition can be indicative that the molecule could be acting as a protein synthesis inhibitor. […] For this purpose, a panel of bacterial strains can be assembled to include a variety of target pathogenic species, some containing resistance mechanisms that have been characterized. Use of such a panel of organisms permits the determination of structure-activity relationships not only in regards to potency and spectrum, but also with a view to obviating resistance mechanisms. The assays can be performed in microtiter trays according to conventional methodologies as published by The National Committee for Clinical Laboratory Standards (NCCLS) guidelines (NCCLS. M7-A5-Methods for Dilution Antimicrobial Susceptibility Tests for Bacteria That Grow Aerobically; Approved Standard-Fifth Edition. NCCLS Document M100-S12/M7 (ISBN 1-56238-394-9)).

[1] = minimum inhibitory concentrations for S. aureus

Row | MIC [1] [µg/mL] | SMILES | MIC [µg/mL]
1 | 2 (≈ 4.3 µM) | CC(=O)NC[C@H]1CN(c2ccc(-c3ccc(CN4CCN(CC#N)CC4)cc3)c(F)c2)C(=O)O1 [Compound 1004, N-{3-[4′-(4-Cyanomethyl-piperazin-1-ylmethyl)-2-fluoro-biphenyl-4-yl]-2-oxo-oxazolidin-5-(S)-ylmethyl}-acetamide] | 
2 | 2 (≈ 4.14 µM) | CC(=O)NC[C@H]1CN(c2ccc(-c3ccc(CN4CCN(CC#N)CC4)c(F)c3)c(F)c2)C(=O)O1 [Compound 1005, N-{3-[4′-(4-Cyanomethyl-piperazin-1-ylmethyl)-2,3′-difluoro-biphenyl-4-yl]-2-oxo-oxazolidin-5-(S)-ylmethyl}-acetamide] | 
3 | 0.5 (≈ 1.1 µM) | CC(=O)NC[C@H]1CN(c2ccc(-c3ccc(CN4CCN(C=O)CC4)cc3)c(F)c2)C(=O)O1 [Compound 1006, N-{3-[2-Fluoro-4′-(4-formyl-piperazin-1-ylmethyl)-biphenyl-4-yl]-2-oxo-oxazolidin-5-(S)-ylmethyl}-acetamide] | 
4 | 0.5 (≈ 1.22 µM) | CC(=O)NC[C@H]1CN(c2ccc(-c3ccc(Cn4ccnc4)cc3)c(F)c2)C(=O)O1 [Compound 1008, N-[3-(2-Fluoro-4′-imidazol-1-ylmethyl-biphenyl-4-yl)-2-oxo-oxazolidin-5-(S)-ylmethyl]-acetamide] | 
5 | 1 (≈ 2.28 µM) | CC(=O)NC[C@H]1CN(c2ccc(-c3ccc(Cn4cc(CN)nn4)cc3)c(F)c2)C(=O)O1 [Compound 1011, N-{3-[4′-(4-Aminomethyl-[1,2,3]triazol-1-ylmethyl)-2-fluoro-biphenyl-4-yl]-2-oxo-oxazolidin-5-(S)-ylmethyl}-acetamide] | 
6 | 2 (≈ 4.42 µM) | CNCc1cn(Cc2ccc(-c3ccc(N4C[C@H](CNC(C)=O)OC4=O)cc3F)cc2)nn1 [Compound 1012, N-{3-[2-Fluoro-4′-(4-methylaminomethyl-[1,2,3]triazol-1-ylmethyl)-biphenyl-4-yl]-2-oxo-oxazolidin-5-(S)-ylmethyl}-acetamide] | 
7 | 0.25 (≈ 0.611 µM) | CC(=O)NC[C@H]1CN(c2ccc(-c3ccc(Cn4ccnn4)cc3)c(F)c2)C(=O)O1 [Compound 1015, N-[3-(2-Fluoro-4′-[1,2,3]triazol-1-ylmethyl-biphenyl-4-yl)-2-oxo-oxazolidin-5-(S)-ylmethyl]-acetamide] | 
8 | 0.25 (≈ 0.611 µM) | CC(=O)NC[C@H]1CN(c2ccc(-c3ccc(Cn4nccn4)cc3)c(F)c2)C(=O)O1 [Compound 1023, N-[3-(2-Fluoro-4′-[1,2,3]triazol-2-ylmethyl-biphenyl-4-yl)-2-oxo-oxazolidin-5-(S)-ylmethyl]-acetamide] | 
9 | 0.5 (≈ 1.18 µM) | CC(=O)NC[C@H]1CN(c2ccc(-c3ccc(Cn4nnnc4N)cc3)c(F)c2)C(=O)O1 [Compound 1025, N-{3-[4′-(5-Amino-tetrazol-1-ylmethyl)-2-fluoro-biphenyl-4-yl]-2-oxo-oxazolidin-5-(S)-ylmethyl}-acetamide] | 

Further lines, the compound ahead of its results:

Row | SMILES | MIC [1] [µg/mL] | MIC [µg/mL]
10 | CC(=O)NC[C@H]1CN(c2ccc(-c3ccc(Cc4nnn[nH]4)cc3)c(F)c2)C(=O)O1 [Compound 1007, N-{3-[2-Fluoro-4′-(1H-tetrazol-5-(S)-ylmethyl)-biphenyl-4-yl]-2-oxo-oxazolidin-5-(S)-ylmethyl}-acetamide] | 8 (≈ 19.5 µM) | 
11 | CC(=O)NC[C@H]1CN(c2ccc(-c3ccc(Cn4ccnn4)c(F)c3)c(F)c2)C(=O)O1 [Compound 1009, N-[3-(2,3′-Difluoro-4′-[1,2,3]triazol-1-ylmethyl-biphenyl-4-yl)-2-oxo-oxazolidin-5-(S)-ylmethyl]-acetamide] | 0.25 (≈ 0.585 µM) | 
12 | CC(=O)NC[C@H]1CN(c2ccc(-c3ccc(Cn4ccnc4)c(F)c3)c(F)c2)C(=O)O1 [Compound 1010, N-[3-(2,3′-Difluoro-4′-imidazol-1-ylmethyl-biphenyl-4-yl)-2-oxo-oxazolidin-5-(S)-ylmethyl]-acetamide] | 1 (≈ 2.35 µM) | 
13 | CC(=O)NC[C@H]1CN(c2ccc(-c3ccc(Cn4cc(CN(C)C)nn4)cc3)c(F)c2)C(=O)O1 [Compound 1013, N-{3-[4′-(4-Dimethylaminomethyl-[1,2,3]triazol-1-ylmethyl)-2-fluoro-biphenyl-4-yl]-2-oxo-oxazolidin-5-(S)-ylmethyl}-acetamide] | 4 (≈ 8.57 µM) | 
14 | CC(=O)NC[C@H]1CN(c2ccc(-c3ccc(Cn4cc(CNC(=O)CN)nn4)cc3)c(F)c2)C(=O)O1 [Compound 1014, N-(1-{4′-[5-(S)-(Acetylamino-methyl)-2-oxo-oxazolidin-3-yl]-2′-fluoro-biphenyl-4-ylmethyl}-1H-[1,2,3]triazol-4-ylmethyl)-2-amino-acetamide] | 8 (≈ 16.1 µM) | 
15 | CC(=O)NC[C@H]1CN(c2ccc(-c3ccc(Cc4nc(=O)o[nH]4)cc3)c(F)c2)C(=O)O1 [Compound 1016, N-{3-[2-Fluoro-4′-(5-(S)-oxo-2,5-(S)-dihydro-[1,2,4]oxadiazol-3-ylmethyl)-biphenyl-4-yl]-2-oxo-oxazolidin-5-(S)-ylmethyl}-acetamide] |  | 4 (≈ 9.38 µM)
16 | CC(=O)NC[C@H]1CN(c2ccc(-c3ccc(Cc4noc(C)n4)cc3)c(F)c2)C(=O)O1 [Compound 1017, N-{3-[2-Fluoro-4′-(5-(S)-methyl-[1,2,4]oxadiazol-3-ylmethyl)-biphenyl-4-yl]-2-oxo-oxazolidin-5-(S)-ylmethyl}-acetamide] | 1 (≈ 2.36 µM) | 
17 | CC(=O)NC[C@H]1CN(c2cc(F)c(-c3ccc(Cn4cc(CO)nn4)cc3)c(F)c2)C(=O)O1 [Compound 1018, N-{3-[2,6-Difluoro-4′-(4-hydroxymethyl-[1,2,3]triazol-1-ylmethyl)-biphenyl-4-yl]-2-oxo-oxazolidin-5-(S)-ylmethyl}-acetamide] |  | 1 (≈ 2.19 µM)
18 | CC(=O)NC[C@H]1CN(c2cc(F)c(-c3ccc(Cn4cc(CN(C)C)nn4)cc3)c(F)c2)C(=O)O1 [Compound 1019, N-{3-[4′-(4-Dimethylaminomethyl-[1,2,3]triazol-1-ylmethyl)-2,6-difluoro-biphenyl-4-yl]-2-oxo-oxazolidin-5-(S)-ylmethyl}-acetamide] |  | 2 (≈ 4.13 µM)
19 | CC(=O)NC[C@H]1CN(c2ccc(-c3ccc(Cc4csc(NCC5CCCO5)n4)cc3)c(F)c2)C(=O)O1 (stereo partly drawn) [Compound 1020, N-[3-(2-Fluoro-4′-{2-[(tetrahydro-furan-2-ylmethyl)-amino]-thiazol-4-ylmethyl}-biphenyl-4-yl)-2-oxo-oxazolidin-5-(S)-ylmethyl]-acetamide] |  | 1 (≈ 1.91 µM)
20 | COc1cccc(CNc2nc(Cc3ccc(-c4ccc(N5C[C@H](CNC(C)=O)OC5=O)cc4F)cc3)cs2)c1 [Compound 1021, N-(3-{2-Fluoro-4′-[2-(3-methoxy-benzylamino)-thiazol-4-ylmethyl]-biphenyl-4-yl}-2-oxo-oxazolidin-5-(S)-ylmethyl)-acetamide] |  | 1 (≈ 1.78 µM)
21 | CC(=O)NC[C@H]1CN(c2ccc(-c3ccc(CN4CC(C#N)C4)cc3)c(F)c2)C(=O)O1 [Compound 1022, N-{3-[4′-(3-Cyano-azetidin-1-ylmethyl)-2-fluoro-biphenyl-4-yl]-2-oxo-oxazolidin-5-(S)-ylmethyl}-acetamide] |  | 0.25 (≈ 0.592 µM)
22 | CC(=O)NC[C@H]1CN(c2ccc(-c3ccc(Cn4nnc(N)n4)cc3)c(F)c2)C(=O)O1 [Compound 1024, N-{3-[4′-(5-Amino-tetrazol-2-ylmethyl)-2-fluoro-biphenyl-4-yl]-2-oxo-oxazolidin-5-(S)-ylmethyl}-acetamide] | 0.25 (≈ 0.588 µM) | 
23 | CC(=O)NC[C@H]1CN(c2ccc(-c3ccc(Cn4nnc(C(N)=O)c4N)cc3)c(F)c2)C(=O)O1 [Compound 1026, 1-{4′-[5-(S)-(Acetylamino-methyl)-2-oxo-oxazolidin-3-yl]-2′-fluoro-biphenyl-4-ylmethyl}-5-amino-1H-[1,2,3]triazole-4-carboxylic acid amide] | 2 (≈ 4.28 µM) | 
